Reference: patent publication US20230081390A1, “INHIBITORS OF RAF KINASES” (Kinnate Biopharma Inc., priority 2019, published 2023)

Columns and labels:
human RAF1 = human RAF1 (Homo sapiens, UniProt P04049); assay: Protein kinase assay (33P-ATP filter binding), human RAF1, 10-dose IC50; type: biochemical; settings: MEK1 (K97R) substrate 3 micromolar, ATP 10 micromolar, read-out: RAF-1 IC50
Method in brief: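 Radiometric filter-binding format: 10 µM ATP, 3 µM MEK1 (K97R) as substrate for human RAF1, 2 hr at room temperature in 20 mM HEPES pH 7.5 with 10 mM MgCl2. Compounds were dispensed acoustically from DMSO. IC50 came from percent kinase activity relative to vehicle over a 10-dose series.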

human BRAF = human BRAF (Homo sapiens, UniProt P15056); assay: Protein kinase assay (33P-ATP filter binding), human BRAF, 10-dose IC50; type: biochemical; settings: MEK1 (K97R) substrate 1 micromolar, ATP 25 micromolar, read-out: B-RAF IC50
Method: Protein kinase assay: Assay platform was used to measure kinase/inhibitor interactions as described previously (Anastassiadis et al., 2011). In brief, for each reaction, kinase and substrate were mixed in a buffer containing 20 mM HEPES (pH 7.5), 10 mM MgCl2, 1 mM EGTA, 0.02% Brij35, 0.02 mg/mL BSA, 0.1 mM Na3VO4, 2 mM DTT, and […]. All compounds were solubilized in DMSO. Compounds were then added to each reaction mixture via acoustic dispense using an ECHO 550 nanoliter dispenser. For human RAF1 testing, human MEK1 (K97R) was used as a substrate at a concentration of 3 micromolar, with a final ATP concentration of 10 micromolar. For human BRAF testing, human MEK1 (K97R) was used as a substrate at 1 micromolar concentration, with a final ATP concentration of 25 micromolar. […] After a 20-min incubation, ATP (Sigma-Aldrich, St. Louis, Mo. 63178) and [g33P] ATP (specific activity 10 microCi/microliter) purchased at PerkinElmer (Boston, Mass., 02118 Cat #BLU 003H250UC) were added at a final total concentration of […]. Reactions were carried out at room temperature for 2 hr and spotted onto P81 ion exchange cellulose chromatography paper (Reaction Biology). Filter paper was washed in 0.75% phosphoric acid to remove unincorporated ATP. The percent remaining kinase activity relative to a vehicle-containing (DMSO) kinase reaction was calculated for each kinase/inhibitor pair. IC50 values were calculated using Prism 5 (GraphPad).

Sequence of human BRAF (P15056 whole entry): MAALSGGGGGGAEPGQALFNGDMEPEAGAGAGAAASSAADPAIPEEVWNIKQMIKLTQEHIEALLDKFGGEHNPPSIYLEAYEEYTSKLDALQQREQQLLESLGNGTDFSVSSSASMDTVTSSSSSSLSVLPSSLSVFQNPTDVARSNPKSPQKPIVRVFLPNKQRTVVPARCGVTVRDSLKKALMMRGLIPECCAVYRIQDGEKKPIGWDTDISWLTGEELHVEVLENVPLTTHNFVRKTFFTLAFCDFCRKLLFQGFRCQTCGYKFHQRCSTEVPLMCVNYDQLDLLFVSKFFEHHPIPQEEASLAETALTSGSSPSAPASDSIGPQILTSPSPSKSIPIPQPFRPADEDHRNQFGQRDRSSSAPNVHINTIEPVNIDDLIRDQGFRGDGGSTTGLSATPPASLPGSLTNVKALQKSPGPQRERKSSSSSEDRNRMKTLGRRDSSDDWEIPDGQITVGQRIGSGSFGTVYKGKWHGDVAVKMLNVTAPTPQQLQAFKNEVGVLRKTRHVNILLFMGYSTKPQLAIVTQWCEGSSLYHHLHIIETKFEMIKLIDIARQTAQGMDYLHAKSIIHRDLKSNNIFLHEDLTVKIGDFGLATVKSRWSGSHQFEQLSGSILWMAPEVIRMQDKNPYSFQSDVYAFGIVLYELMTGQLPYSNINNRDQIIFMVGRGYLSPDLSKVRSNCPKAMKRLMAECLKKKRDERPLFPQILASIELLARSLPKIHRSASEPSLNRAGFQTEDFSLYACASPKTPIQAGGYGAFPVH
Sequence of human RAF1 (P04049 whole entry): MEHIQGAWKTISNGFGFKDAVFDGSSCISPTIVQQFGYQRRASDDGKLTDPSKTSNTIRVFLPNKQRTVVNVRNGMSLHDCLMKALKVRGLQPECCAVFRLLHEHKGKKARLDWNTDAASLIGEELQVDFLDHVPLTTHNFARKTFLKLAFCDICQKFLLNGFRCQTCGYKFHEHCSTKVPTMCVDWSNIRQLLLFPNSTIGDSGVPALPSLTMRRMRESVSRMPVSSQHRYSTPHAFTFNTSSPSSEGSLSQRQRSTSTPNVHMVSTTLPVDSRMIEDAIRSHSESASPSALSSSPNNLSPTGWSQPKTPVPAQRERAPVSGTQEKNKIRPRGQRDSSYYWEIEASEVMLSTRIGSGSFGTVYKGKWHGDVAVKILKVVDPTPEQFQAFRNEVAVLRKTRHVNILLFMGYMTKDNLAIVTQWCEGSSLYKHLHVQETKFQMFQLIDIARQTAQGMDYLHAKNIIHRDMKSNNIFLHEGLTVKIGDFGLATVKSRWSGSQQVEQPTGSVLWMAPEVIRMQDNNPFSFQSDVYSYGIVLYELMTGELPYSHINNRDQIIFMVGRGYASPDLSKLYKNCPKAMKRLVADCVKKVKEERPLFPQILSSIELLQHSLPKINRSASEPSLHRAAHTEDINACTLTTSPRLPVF

| SMILES | IC50 (human RAF1) | IC50 (human BRAF) |
| --- | --- | --- |
| Cc1cc(F)c(NC(=O)N2CCC(C(F)(F)F)C2)cc1-c1cc(OCCO)nc(N2CCOCC2)c1 (racemic) [Example 3, (RS)-N-(2-fluoro-5-(2-(2-hydroxyethoxy)-6-morpholinopyridin-4-yl)-4-methylphenyl)-3-(trifluoromethyl)pyrrolidine-1-carboxamide] | < 10 nM | 10 to 100 nM |
| Cc1cc(F)c(NC(=O)N2CCCC(C(F)(F)F)C2)cc1-c1cc(OCCO)nc(N2CCOCC2)c1 (racemic) [Example 4, (RS)-N-(2-fluoro-5-(2-(2-hydroxyethoxy)-6-morpholinopyridin-4-yl)-4-methylphenyl)-3-(trifluoromethyl)piperidine-1-carboxamide] | < 10 nM | 10 to 100 nM |
| Cc1cc(F)c(NC(=O)N2CCC(C(C)(C)C)C2)cc1-c1cc(OCCO)nc(N2CCOCC2)c1 (racemic) [Example 5, (RS)-3-(tert-butyl)-N-(2-fluoro-5-(2-(2-hydroxyethoxy)-6-morpholinopyridin-4-yl)-4-methylphenyl)pyrrolidine-1-carboxamide] | < 10 nM | 10 to 100 nM |
| Cc1cc(F)c(NC(=O)N2CCNC(C(F)(F)F)C2)cc1-c1cc(OCCO)nc(N2CCOCC2)c1 (racemic) [Example 7, (RS)-N-(2-fluoro-5-(2-(2-hydroxyethoxy)-6-morpholinopyridin-4-yl)-4-methylphenyl)-3-(trifluoromethyl)piperazine-1-carboxamide] | < 10 nM | 100 to 1000 nM |
| Cc1cc(F)c(NC(=O)N2CC[C@@H](C(F)(F)F)C2)cc1-c1cc(OCCO)nc(N2CCOCC2)c1 [Example 1, (R)-N-(2-fluoro-5-(2-(2-hydroxyethoxy)-6-morpholinopyridin-4-yl)-4-methylphenyl)-3-(trifluoromethyl)pyrrolidine-1-carboxamide] | < 10 nM | 10 to 100 nM |
| Cc1cc(F)c(NC(=O)N2CC[C@H](C(F)(F)F)C2)cc1-c1cc(OCCO)nc(N2CCOCC2)c1 [Example 2, (S)-N-(2-fluoro-5-(2-(2-hydroxyethoxy)-6-morpholinopyridin-4-yl)-4-methylphenyl)-3-(trifluoromethyl)pyrrolidine-1-carboxamide] | < 10 nM | 10 to 100 nM |
| Cc1cc(F)c(NC(=O)NCCC(C)(C)C)cc1-c1cc(OCCO)nc(N2CCOCC2)c1 [Example 6, 1-(3,3-dimethylbutyl)-3-(2-fluoro-5-(2-(2-hydroxyethoxy)-6-morpholinopyridin-4-yl)-4-methylphenyl)urea] | < 10 nM | 10 to 100 nM |

Now from value to compound:

| IC50 (human RAF1) | IC50 (human BRAF) | SMILES |
| --- | --- | --- |
| < 10 nM | 10 to 100 nM | Cc1cc(F)c(NC(=O)N2CCCC(C(C)(C)C)C2)cc1-c1cc(OCCO)nc(N2CCOCC2)c1 (racemic) [Example 8, (RS)-3-(tert-butyl)-N-(2-fluoro-5-(2-(2-hydroxyethoxy)-6-morpholinopyridin-4-yl)-4-methylphenyl)piperidine-1-carboxamide] |
| < 10 nM | 10 to 100 nM | Cc1cc(F)c(NC(=O)N2CCOC(C(F)(F)F)C2)cc1-c1cc(OCCO)nc(N2CCOCC2)c1 (racemic) [Example 10, (RS)-N-(2-fluoro-5-(2-(2-hydroxyethoxy)-6-morpholinopyridin-4-yl)-4-methylphenyl)-2-(trifluoromethyl)morpholine-4-carboxamide] |
| 10 to 100 nM | 100 to 1000 nM | Cc1cc(F)c(NC(=O)N2CCNC(C(C)(C)C)C2)cc1-c1cc(OCCO)nc(N2CCOCC2)c1 (racemic) [Example 11, (RS)-3-(tert-butyl)-N-(2-fluoro-5-(2-(2-hydroxyethoxy)-6-morpholinopyridin-4-yl)-4-methylphenyl)piperazine-1-carboxamide] |
| < 10 nM | 10 to 100 nM | Cc1cc(F)c(NC(=O)N2CCOC(C(C)(C)C)C2)cc1-c1cc(OCCO)nc(N2CCOCC2)c1 (stereo not drawn) [Example 9, 2-(tert-butyl)-N-(2-fluoro-5-(2-(2-hydroxyethoxy)-6-morpholinopyridin-4-yl)-4-methylphenyl)morpholine-4-carboxamide] |
| < 10 nM | – | Cc1ccc(NC(=O)N2CC[C@@H](CC(F)(F)F)C2)cc1-c1cc(OC(C)(C)CO)nc(N2CCOCC2)c1 [Example 232, (S)-N-(3-(2-((1-hydroxy-2-methylpropan-2-yl)oxy)-6-morpholinopyridin-4-yl)-4-methylphenyl)-3-(2,2,2-trifluoroethyl)pyrrolidine-1-carboxamide] |
| < 10 nM | – | Cc1ccc(NC(=O)N2CC[C@@H](CC(F)(F)F)C2)cc1-c1cc(O[C@H](C)[C@@H](C)O)nc(N2CCOCC2)c1 [Example 233, (S)-N-(3-(2-(((2R,3R)-3-hydroxybutan-2-yl)oxy)-6-morpholinopyridin-4-yl)-4-methylphenyl)-3-(2,2,2-trifluoroethyl)pyrrolidine-1-carboxamide] |
